Laboratory results taken from patent US20070254907A1, “COMPOSITIONS AND METHODS FOR CONTROLLING INFESTATION” (HATCHTECH PTY LTD, priority 2003, published 2007).
“Also recorded” adds a separate entry of the source. Where two headings read alike, the source gives them in different places.

Experiments:
[1] = test system: lice eggs; experiment: whole plant or invertebrate; type: in vivo; conditions: for inhibition at 10000 µM / inhibition at 2500 µM / inhibition at 5000 µM: read-out: Percent inhibition of egg hatching; for inhibition at 2500 µM: 2.5 mM; for inhibition at 5000 µM: 5 mM
[2] = test system: head lice egg; experiment: Head lice egg hatching, time course; type: in vivo, Pediculus humanus capitus; conditions: 10 mM; for inhibition at 10000 µM: Pediculus humanus, 10 minutes, read-out: Percent inhibition of egg hatching relative to the control
Protocol: Tests were carried out to determine if metal chelating agent and metalloprotease inhibitor 1,10-phenanthroline could inhibit head lice egg (Pediculus humanus capitus) hatching as opposed to body lice. Head lice eggs were obtained by placing groups of both 1-2 adult male and 6-8 adult female head lice in separate wells in a 24 well petri dish containing cotton cloth. The petri dish was transferred to a humid incubator at 32° C., 70% RH for 12 hours to permit the female lice to lay their eggs. After 12 hours, all adult lice were removed from the petri dish wells and a series of time-course experiments conducted. A group of eggs (24 hr old) was treated for 10 minutes with 200 μL of a 10 mM solution of 1,10-phenanthroline. A control (ie no inhibitor treatment) group of eggs was also included. The eggs were removed from the inhibitor, blotted dry on tissue paper, placed at 32° C., 70% RH and left to hatch. A second group of eggs, (48 hours old) were treated as previously described and also left to hatch. This process was repeated at 24 hour intervals on head lice eggs up to 120 hours post laying. This method of assaying inhibitors more closely mirrors the field situation where lice eggs will be at various stages of development on the head and permits the inhibitory effects to be observed on these different stages of the parasite.

[3] = test system: Plutella xylostella eggs; experiment: whole plant or invertebrate; type: in vivo; conditions: for Number hatched / Number unhatched: dipped 2-10 s, day 6 post laying
Protocol: The ovicidal efficacy of 2-acetyl-1-tetralone was also tested against Plutella eggs.

[4] = test system: Helicoverpa armigera eggs; experiment: Egg hatching of Helicoverpa armigera
Protocol: A range of concentrations were made up in water and the eggs placed in the solutions for approximately 2-10 seconds. The eggs which had been laid on cloth were then blotted dry and placed in an incubator at 26° C. for 3-4 days until hatch. Hatch rates were then assessed compared to a water only treated control (FIG. 5).
The compound was dissolved in 100% diethoxyglycol and diluted to a final concentration of 1% in water.
Several hundred Helicoverpa armigera eggs (Tatura×Toowoomba strains) were collected, that had been laid on fine mesh cloth over a 24 hour period.
Batches of Helicoverpa eggs were exposed to a specific inhibitor solution for between 2-10 seconds the excess solution drained by blotting with dry tissue paper. The egg masses were then placed in a humid box at 25 degrees until egg hatch. Control eggs were exposed to absolute methanol as described above. At day 6 post laying the eggs were assessed from the different treatments and the percentage of egg hatch determined relative to the control as shown in Table 12.
Batches of Helicoverpa eggs were then exposed to a specific inhibitor solution for between 2-10 seconds the excess solution drained by blotting with dry tissue paper. The egg masses were then placed in a humid box at 25° C. until egg hatch. Control eggs were exposed to absolute methanol as described above. At day 6 post laying the eggs were assessed from the different treatments and the percentage of egg hatch determined relative to the control as shown in Table 13.

[5] = Pediculus humanus, 24 h, treated 24 hr post egg laying
[6] = Pediculus humanus, 48 h, treated 48 hr post egg laying
[7] = Pediculus humanus, 72 h, treated 72 hr post egg laying
[8] = Pediculus humanus, 96 h, treated 96 hr post egg laying
[9] = Pediculus humanus, 120 h, treated 120 hr post egg laying
[10] = Pediculus humanus, 144 h, treated 144 hr post egg laying

c1cnc2c(c1)ccc1cccnc12 [1,10-phenanthroline, reference compound]
inhibition of lice egg hatching following washing of eggs in water ([1]; 10 mM, then 1 minute wash): still highly efficacious at inhibiting lice egg hatching
embryo development in treated eggs ([1]; 10 mM, a proportion of eggs): had embryos that appeared to develop normally yet failed to hatch
inhibition of egg hatching in lice ([1]; 10 mM, eggs treated 5 days post laying, 10 min): significantly inhibited egg hatching
inhibition at 1000 µM ([1]; Pediculus humanus, 1 mM, eggs treated 5 days post laying, 10 min, read-out: level of inhibition of egg hatching compared to controls): ~30%
inhibition at 10000 µM ([1]; Pediculus humanus, 10 mM, 10 minutes, not washed, treated 24 hr post laying): 100%
inhibition at 10000 µM ([1]; Pediculus humanus, 10 mM, 10 minutes, not washed, treated 48 hr post laying): 100%
inhibition at 10000 µM ([1]; Pediculus humanus, 10 mM, 10 minutes, not washed, treated 72 hr post laying): 100%
inhibition at 10000 µM ([1]; Pediculus humanus, 10 mM, 10 minutes, not washed, treated 96 hr post laying): 100%
inhibition at 10000 µM ([1]; Pediculus humanus, 10 mM, 10 minutes, not washed, treated 120 hr post laying): 100%
inhibition at 10000 µM ([1]; Pediculus humanus, 10 mM, 10 minutes, washed for 1 minute, treated 24 hr post laying): 100%
inhibition at 10000 µM ([1]; Pediculus humanus, 10 mM, 10 minutes, washed for 1 minute, treated 48 hr post laying): 100%
inhibition at 10000 µM ([1]; Pediculus humanus, 10 mM, 10 minutes, washed for 1 minute, treated 72 hr post laying): 100%
inhibition at 10000 µM ([1]; Pediculus humanus, 10 mM, 10 minutes, washed for 1 minute, treated 96 hr post laying): 97%
inhibition at 10000 µM ([1]; Pediculus humanus, 10 mM, 10 minutes, washed for 1 minute, treated 120 hr post laying): 62%
inhibition at 2500 µM [1, 5]: 100%
inhibition at 5000 µM [1, 5]: 100%
inhibition at 10000 µM ([1]; Pediculus humanus, 24 h, 10 mM, treated 24 hr post egg laying): 100%
inhibition at 2500 µM [1, 6]: 100%
inhibition at 5000 µM [1, 6]: 100%
inhibition at 10000 µM ([1]; Pediculus humanus, 48 h, 10 mM, treated 48 hr post egg laying): 100%
inhibition at 2500 µM [1, 7]: 85%
inhibition at 5000 µM [1, 7]: 100%
inhibition at 10000 µM ([1]; Pediculus humanus, 72 h, 10 mM, treated 72 hr post egg laying): 100%
inhibition at 2500 µM [1, 8]: 85%
inhibition at 5000 µM [1, 8]: 100%
inhibition at 10000 µM ([1]; Pediculus humanus, 96 h, 10 mM, treated 96 hr post egg laying): 100%
inhibition at 2500 µM [1, 9]: 89%
inhibition at 5000 µM [1, 9]: 93%
inhibition at 10000 µM ([1]; Pediculus humanus, 120 h, 10 mM, treated 120 hr post egg laying): 100%
inhibition at 2500 µM [1, 10]: 60%
inhibition at 5000 µM [1, 10]: 96%
inhibition at 10000 µM ([1]; Pediculus humanus, 144 h, 10 mM, treated 144 hr post egg laying): 100%
inhibition of egg hatching ([1]; added within 24 hours of hatching): variable inhibition of egg hatching
inhibition of lice egg hatching in time-course experiments ([1]; varying concentrations (10, 5, 2.5 mM), 24-144 hr post egg laying): Significant inhibition; also recorded: significantly inhibit egg hatching in lice at all time points examined
inhibition of egg hatching in head lice [2]: significantly inhibit egg hatching in head lice
inhibition at 10000 µM ([2]; treated day 1 post laying): 100%
inhibition at 10000 µM ([2]; treated day 2 post laying): 87%
inhibition at 10000 µM ([2]; treated day 3 post laying): 88%
inhibition at 10000 µM ([2]; treated day 4 post laying): 100%
inhibition at 10000 µM ([2]; treated day 5 post laying): 100%
effect on egg hatching of Plutella xylostella (words) ([3]; 10 mM): significantly inhibit egg hatching
inhibition at 1000 µM ([3]; Plutella xylostella, Table 9, 1 mM, relative to control (100% MeOH), read-out: % Inhibition): 0%
inhibition at 10000 µM ([3]; Plutella xylostella, Table 9, 10 mM, relative to control (100% MeOH), read-out: % Inhibition): 100%
Number hatched ([3]; Table 9, 1 mM): 15
Number unhatched ([3]; Table 9, 1 mM): 16
Number hatched ([3]; Table 9, 10 mM): 0
Number unhatched ([3]; Table 9, 10 mM): 45
effect on egg hatching of Helicoverpa armigera (words) ([4]; 10 mM): able to inhibit egg hatching
inhibition at 1000 µM ([4]; Helicoverpa armigera): 0%
inhibition at 10000 µM ([4]; Helicoverpa armigera): 44%
Number hatched ([4]; Table 12, 10 mM): 31
Number unhatched ([4]; Table 12, 10 mM): 16
